According to ChEMBL document CHEMBL1201862, “PubChem BioAssay data set” (2004):
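Growth conditions: 96-well plates. Treatment: test compound, 48 hours, 5 concentrations. Analysis: linear interpolation between bracketing concentrations; unreached endpoints set to highest concentration. GI50 is the concentration that inhibits growth by half.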 The source made the active and inactive calls. Rule as the data show it: active = GI50 up to about 1.1 µM and inactive = higher.

Experiments:
Assay in all cases: NCI tumour cell line growth inhibition, 48 h
[1] = system: OVCAR-8
[2] = system: A498
[3] = system: COLO 205
[4] = system: Malme-3M
[5] = system: M14
[6] = system: ACHN
[7] = system: LXFL 529
[8] = system: EKVX
[9] = system: A549
[10] = system: U-251
[11] = system: CCRF-CEM
[12] = system: OVCAR-4
[13] = system: HOP-92
[14] = system: UACC-257
[15] = system: SK-OV-3
[16] = system: SK-MEL-28
[17] = system: HCT-116
[18] = system: MDA-MB-435
[19] = system: MDA-MB-231
[20] = system: SR

Measured: GI50

COC(=O)c1nc(N)nc(O)c1CCCCCc1c(O)nc(N)nc1C(=O)OC
inactive: [1] > 50 µM | [2] > 50 µM | [3] > 50 µM | [4] > 50 µM | [5] > 50 µM | [6] > 50 µM | [7] > 50 µM | [8] > 50 µM | [9] > 50 µM | [10] > 50 µM | [11] > 50 µM | [12] > 50 µM | [13] > 50 µM | [14] > 50 µM | [15] > 50 µM | [16] > 50 µM

CC(C)(C)/C(O)=C\c1nc2cc(C(F)(F)F)ccc2[nH]c1=O
inactive: [1] > 100 µM | [2] > 100 µM | [3] > 100 µM | [4] > 100 µM | [5] > 100 µM | [17] > 100 µM | [6] > 100 µM | [8] > 100 µM | [9] > 100 µM | [10] > 100 µM | [11] 13.3 µM | [12] > 100 µM | [13] > 100 µM | [14] > 100 µM | [18] > 100 µM | [15] > 100 µM | [19] > 100 µM | [20] > 10 µM | [16] > 100 µM

CN1C(=O)C(C(N)=O)C2CC1(C)Oc1ccccc12 (stereo not drawn)
inactive: [1] > 100 µM | [2] > 100 µM | [3] > 100 µM | [4] > 100 µM | [5] > 100 µM | [17] > 100 µM | [6] > 100 µM | [8] > 100 µM | [9] > 100 µM | [10] > 100 µM | [11] > 100 µM | [12] > 100 µM | [13] > 100 µM | [14] > 100 µM | [18] > 100 µM | [15] > 100 µM | [19] > 100 µM | [20] > 100 µM | [16] > 100 µM

O=C1C[C@@H]2[C@@H](CCC23CCCC3)N1
inactive: [1] > 100 µM | [2] > 100 µM | [3] > 100 µM | [4] > 100 µM | [5] > 100 µM | [17] > 100 µM | [6] > 100 µM | [7] > 100 µM | [8] > 100 µM | [9] > 100 µM | [10] > 100 µM | [11] > 100 µM | [12] > 100 µM | [14] > 100 µM | [15] > 100 µM | [16] > 100 µM

COC(=O)C1=C(O)C(C(=O)OC)[C@]2(O)[C@H](C(=O)OC)[C@H]1C[C@@H](c1ccccc1OC)[C@H]2C(=O)OC (stereo partly drawn)
inactive: [1] 2.86 µM | [2] 3.53 µM | [3] 4.55 µM | [4] 2.83 µM | [5] 2.88 µM | [17] 3.65 µM | [6] 6.25 µM | [8] 8.07 µM | [9] 3.85 µM | [10] 6.56 µM | [11] 3.56 µM | [12] 4.95 µM | [13] 2.34 µM | [14] 9.64 µM | [18] 2.71 µM | [15] 4.33 µM | [19] 9.55 µM | [20] 1.93 µM | [16] 7.87 µM

O=C1C=CC(=O)c2c1ccc1c3ccccc3n(-c3ccccn3)c21
inactive: [1] 24.7 µM | [3] 14.2 µM | [4] 17.8 µM | [5] 27.5 µM | [17] 13.2 µM | [6] 21.2 µM | [7] 14.8 µM | [8] 13.8 µM | [9] > 100 µM | [10] > 100 µM | [11] 2.5 µM | [12] 15.5 µM | [13] 15.6 µM | [14] 18.5 µM | [15] > 100 µM | [16] > 100 µM

CC1=C(Cl)C[C@@H](/C(C)=C\Cl)O[C@@]1(O)C(Br)Br
inactive: [1] 32.1 µM | [2] 31.1 µM | [3] 29.5 µM | [4] 24.5 µM | [5] 22.5 µM | [17] 30.4 µM | [6] 30.5 µM | [8] 26.5 µM | [9] 22 µM | [10] 32.8 µM | [11] 6.27 µM | [12] 43 µM | [13] 25.2 µM | [14] 35.3 µM | [18] 31.6 µM | [15] > 100 µM | [19] 19.5 µM | [20] 19.5 µM | [16] 59.8 µM

COc1ccc(C(O)CC(O)(C(F)(F)F)C(F)(F)F)cc1 (stereo not drawn)
inactive: [1] 23 µM | [2] 21.9 µM | [3] 19.1 µM | [4] 16.8 µM | [5] 32.8 µM | [17] 16.6 µM | [6] 29.6 µM | [8] 31.3 µM | [9] 21.5 µM | [10] 37.4 µM | [11] 20.8 µM | [12] 32.6 µM | [13] 15.8 µM | [14] 19.1 µM | [18] 31.9 µM | [15] 54.1 µM | [19] 20 µM | [20] 22.9 µM | [16] 62.7 µM
